Laboratory results reported in patent US20240300905A1, “Quinazoline Compounds and Uses” (Prosetta Biosciences, Inc., priority 2023, published 2024).

Columns and labels:
Type in all cases: cell-based
Hennes-20 cells = assay: Hennes-20 oncology screen (low vs high plating density, alamar Blue); conditions: 72 h, Hennes-20 cells, 72 hours compound incubation, alamar Blue; read-out: EC50
Experimental: All compounds mentioned as active were tested in Hennes. Select hits from the Hennes screen were sent for additional anti-cancer testing.
To screen compounds for oncology activity Hennes-20 cells were plated at low (500 cells/well) versus high (15,000 cells/well) densities and treated with DMSO (vehicle) or dose-titration of compounds. The rationale for this screen is that an intrinsically toxic compound should kill cells regardless of density, including in Hennes-20 cells. However, a compound that selectively triggers the arrest of proliferation will inhibit cell growth when plated at a low density will appear cytotoxic due to inhibition of cell growth when plated at a low density but will appear non-toxic to cells plated at a high density where the cells are approaching confluence and the readout detected by a cell viability assay is already close to the maximum.
To conduct the Hennes-20 screen, two 96 well plates were seeded with Hennes 20 cells in parallel where one was plated at a density of 500 cells/well and the other was plated at a density of 15,000 cells/well. 90 uL of minimum essential media was added to each well and plates were placed in a 37 degrees Celsius incubator for 24 hours. The next day, 10 ul of media containing dilutions of compound in DMSO were added to each plate. Six wells on each plate received 10 ul of media containing only DMSO. Each well was gently mixed 5 times with a 100 ul pipette. Plates were incubated at 37 degrees Celsius for 72 hours then 10 uL of alamar Blue was added to each well. Wells were mixed 5 times then incubated at 37 degrees Celsius for […]. Plates were then read at 530/590.
The rationale for the screen is as follows: Hennes-20 cells lack endogenous apoptosis. Cells plated at low density will proliferate and approach confluence in 72 hrs. A drug that arrests proliferation may have its proliferation blocking effect masked by the triggering of endogenous apoptosis. However, in the Hennes line, lacking endogenous apoptosis, such an arrest is manifest as a dose-dependent maintenance at low cell density. Since the high-density cells are plated close to confluence, the difference between Alamar Blue cell survival readings after 72 hrs reflects the ability of the drug to block proliferation in the low density-plated cells. In the high density-plated cells any diminution of Alamar Blue readout vs vehicle control is due to intrinsic toxicity, not proliferation arrest, since cells were already at confluence. Thus, a compound that appears toxic (low Alamar Blue readings after 72 hrs) on the low-density plate, but which appears non-toxic (high Alamar Blue readings after 72 hrs) on the high-density plate, must be arresting proliferation, since intrinsic compound toxicity should be observed at both low and high cell densities, not selectively on the low-density plate.

plasmodium = assay: Malaria screen (SYBR green fluorescence, plasmodium parasitemia culture); conditions: 0.5% plasmodium parasitemia culture, 48 hours
Experimental: Compound was added to a 0.5% plasmodium parasitemia culture for 48 hours, then treated with SYBR green (a dye with marked fluorescence enhancement upon contact with plasmodium DNA) and the fluorescence was measured in drug treated versus untreated cells to determine inhibitory effects (Smilkstein, et al., “Simple and inexpensive fluorescence-based technique for high-throughput antimalarial drug screening,” Antimicrob Agents Chemother, 2004 May; 48(5):1803-6. doi: 10.1128/AAC.48.5.1803-1806.2004. PMID: 15105138: PMCID: PMC400546).

NL4-3 Rluc virus = assay: HIV screen (NL4-3 Rluc virus in MT-2 cells, luciferase readout); conditions: Human immunodeficiency virus 1, NL43, MT2, 96 h
Experimental: MT-2 cells were preseeded in 96-well plates in 100 uL of complete RPMI. Multiple concentrations of PAV-951 were serially diluted in DMSO then into an infection media prepared by diluting NL4-3 Rluc virus stock to 400 IU/100 uL with complete RPMI, which was transferred onto the MT-2 cells with a final MOI of 0.02 and final DMSO concentration of 1% in infected places. One well received DMSO only, instead of PAV-951, and one well received medium only for normalization and background collection. Cells were incubated at 37 degrees Celsius for 96 hours. 100 ul of medium was removed and discarded and 10 uL of 15 uM EnduRen luciferase substrate was added to each well, followed by incubation for 1.5 hours at 37 degrees Celsius. Plates were read on a luminescence plate reader. Bioluminescence intensity was read on a Synergy H1 BioTek plate reader. Averages and standard deviation for viral titer observed under different treatment conditions were calculated in Microsoft Excel and graphed as the percent inhibition in PAV-951 treated cells compared to untreated cells.

Row | SMILES | EC50 (Hennes-20 cells) [nM] | EC50 (plasmodium) [µM] | EC50 (NL4-3 Rluc virus) [nM]
1 | c1cc(CCNc2ncnc3cc(N4CCN(c5ccc6c(NCCc7ccncc7)ncnc6c5)CC4)ccc23)ccn1 [Compound 33] | < 12500 | 0.03 | –
2 | CC(C)CCNc1ncnc2cc(N3CCN(c4ccc5c(NCCC6CCNCC6)ncnc5c4)CC3)ccc12 [Compound 36] | < 12500 | 0.76 | –
3 | c1cncc(CCNc2ncnc3cc(N4CCN(c5ccc6c(NCCc7cccnc7)ncnc6c5)CC4)ccc23)c1 [Compound 41] | < 12500 | 0.06 | –
4 | c1ccc(CCNc2ncnc3cc(N4CCN(c5ccc6c(NCCc7ccccc7)ncnc6c5)CC4)ccc23)cc1 [Compound 1] | < 500 | 0.036 | –
5 | Clc1ccc2c(N3CCN(c4ncnc5cc(Cl)ccc45)CC3)ncnc2c1 [Compound 46] | – | > 10 | 510
6 | c1ccc(CCNc2ncnc3cc(N4CCN(c5ccc6c(NCCc7ccccn7)ncnc6c5)CC4)ccc23)nc1 [Compound 40] | < 12500 | 0.091 | –
7 | CC(C)CCNc1ncnc2cc(N3CCN(c4ccc5c(NCCC(C)C)ncnc5c4)CC3)ccc12 [Compound 6] | < 500 | 0.024 | 340
8 | Cn1cccc1CCNc1ncnc2cc(N3CCN(c4ccc5c(NCCc6cccn6C)ncnc5c4)CC3)ccc12 [Compound 5] | < 2500 | 0.031 | 190
9 | CC(C)CCNc1ncnc2cc(N3CCN(c4ccc5c(NCCc6ccccc6)ncnc5c4)CC3)ccc12 [Compound 11] | < 100 | 0.032 | –
